Series [1] concerns FVII (Factor VII), mF7-III target gene. The series can be described thus: RNA interference against FVII by 3′-capped siRNAs (FIG. 2). More on the design: species or system mouse. The conditions noted are these: 19-mer blunt-ended mF7-III siRNA, A12S17.
The subject of series [2] is human HAMP (Hepcidin) gene. In words: Hepcidin mRNA down regulation by HAMP siRNA-PAZ ligand conjugates in HuH-7 cells. The conditions noted are these: Hepcidin RNAi agent, format S402+ribitol+MOE clamp. The format is cell-based.
Series [3] can be described thus: Serum stability of siRNAs with 3′ end caps in human serum. The conditions noted are these: 100% human serum, 37° C., up to 24 h; gel with SYBR gold.
Series [4] in a line: Serum stability of siRNAs with 3′ end caps in mouse serum. The conditions noted are these: 100% mouse serum, 37° C., up to 24 h; compared to luciferase and dTsdT controls.
In a further series the test system is human SSB. In words: Human SSB RNAi agent, RNA interference in vitro. The format is cell-based.

Turning to `C1C2CC3CC1CC(C2)C3` [Adamantane], the “ability of the RNAi agent to perform RNA interference (FIG. 2)” value (“ability of the RNAi agent” below) in series [1] is “allow the RNAi agent to perform RNA interference”.
On to `c1ccc(-c2ccccc2)cc1` [BP (biphenyl), biphenyl], for which, in series [2], the “Hepcidin KD at 5 nM in vitro (%)” value turned out to be 68%.
Regarding `c1ccc(-c2ccccc2)cc1` [Biphenyl], the “stability in human serum” value in series [3] is “increased stability”. For the same molecule, the “ability of the RNAi agent” value in series [1] is “allow the RNAi agent to perform RNA interference”. Besides, the “stability in mouse serum” value in series [4] is listed as “increased stability”.
For `OCCOCCOCCO` [Triethylene glycol], the “ability of the RNAi agent” value in series [1] is recorded as “allow the RNAi agent to perform RNA interference”.
As to “hs_SSB_309_AS_18mer-C3-C6: "human SSB RNAi agent"; "AS: UuAcAUuAAAGUCUGU87-C3pC6", "S: cAAcAGAcuuuAAuGu55-C3pC6" (SEQ ID NO: 90, 91) (chain 1 UUACAUUAAAGUCUGUTG; chain 2 CAACAGACUUUAAUGUAA; C3pC6 3' end caps on both strands, further chemistry not given here)”, the “RNA interference in vitro” value in the series with human SSB is listed as “effective at mediating RNA interference in vitro”.

The values are drawn from US11008570B2, “3′ end caps for RNAi agents for use in RNA interference” (Novartis AG, priority 2013, dated 2021).
